Laboratory results from US5889020A, “Treatment of normotensive glaucoma with angiotensin II antagonists” (CIBA Vision Corporation, priority 1994, dated 1999).

Tests used:
[1] = tested on: ciliary artery; assay: Ciliary artery contraction, myograph method (tissue ring contracted with angiotensin II); parameters: species or system pig
Description: For the myographic determinations, a short segment (7-8 mm) of the ciliary arteries of fresh eyes, e.g. pig's eyes, is dissected and cut into small rings of thickness 2 mm under a microscope (cf. for this K. Yao et al. Invest. Ophthalmaol. Vis. Sci. 32, 1791-1798(1991) and M. J. Mulvany, W. Halpern Circ. res. 41, 19-26(1977)). During the preparation, the tissue is immersed in modified Krebs-Ringer bicarbonate solution. These rings (diameter about 200-400 μm) are installed in the myograph system without delay. Such a tissue ring is stretched using two tungsten wires (diameters 30 and 80 μm), the wires being passed through the lumen. One wire is connected to the power transmission, the other to a micromanipulator for adjustment of muscle length. The tissue ring is immersed in a control solution during the experiment (37°; 95% O2; 5% CO2; pH=7.4) and equilibrated for 45 minutes before testing.
The tissue ring is stretched stepwise and at the same time 100 mM KCl is added in each case. The optimum passive tension is then defined as the tension at which the contraction with 100 mM KCl is greatest. For ciliary arteries, an averaged value for the tension of 977 mg±60 mg is found. The active residual tone of this tissue is defmed as the difference between the optimum passive tension and the tension after a maximum relaxation with 10^-6 molar bradykinin. The corresponding tension is 174 mg±38 mg. In all subsequent experiments, the abovementioned tissue rings are slowly stretched at 100 mg intervals until the optimum is reached.
Before the actual experiment, the endothelial function of such a tissue ring is checked for intactness. The tissue rings are challenged to contract by using 3. 10^-7 molar serotonin solution and in the experimental procedure described above. Thereafter it is checked whether a complete relaxation of the contracted tissue ring occurs with 3. 10^-7 molar bradykinin solution. If this condition is fulfilled, the tissue is held to be intact.
Determination of the ciliary artery contraction using the myograph method
After it was verified as described above that the endothelial functions of a tissue ring of a ciliary artery are intact, the tissue ring preparation is incubated (contracted) with 10^-7 M angiotensin II, and then relaxed with various doses of the angiotensin II antagonist valsartan.

[2] = tested on: perfused isolated pig's eye; assay: Ophthalmic flow in the perfused isolated pig's eye
Description: For the perfusion method on the isolated pig's eye, the fatty tissue which surrounds the extraocular muscles is carefully removed. During this preparation, the ocular globe is surrounded with modified Krebs-Ringer bicarbonate solution at 4° C. The ocular globe is then cannulated under the microscope using a polyethylene cannula (600 μm diameter), namely via the common ophthalmic artery.
Following this preparation, the ocular globe is connected via the polyethylene cannula to a Langendorff perfusion system, and in this way supplied at the latest 1 hour after the start of preparation with a filtered and oxygenated Krebs solution which contains 0.5% albumin.
The catheterization of the common ophthalmic artery guarantees the complete perfusion both of the choroidal and of the retinal tissue and of the small extraocular muscular arteries. The perfused ocular globe is immersed in a thermostated (37° C.) control bath with a glass jacket with the cornea pointed downwards. The overflow rate (ml/min) in the bath corresponds to the ophthalmic flow. Before testing a composition, the ocular globe is equilibrated for 20 minutes. In a control experiment, it is shown that the ophthalmic flow in the experimental procedure selected remains constant for about 120 minutes after the start of the perfusion. All tests are therefore carried out within this time frame.
A perfused isolated pig's eye is first treated as described above with a control solution and then with a solution comprising angiotensin II (10^-6 M). After the determination of the angiotensin II effect, valsartan (10^-5 M) is additionally added on top of the above exposure. The relative ophthalmic flow rate resulting in this way is shown below.

Compound	Relative contraction in comparison to 100 mM KCl ([1]; ciliary artery ring contracted with 10^-7 M angiotensin II, valsartan 10^-5 M)	Relative contraction in comparison to 100 mM KCl ([1]; ciliary artery ring contracted with 10^-7 M angiotensin II, valsartan 10^-6 M)	Relative contraction in comparison to 100 mM KCl ([1]; ciliary artery ring contracted with 10^-7 M angiotensin II, valsartan 10^-7 M)	Relative contraction in comparison to 100 mM KCl ([1]; ciliary artery ring contracted with 10^-7 M angiotensin II, valsartan 10^-8 M)	Relative contraction in comparison to 100 mM KCl ([1]; ciliary artery ring contracted with 10^-7 M angiotensin II, valsartan 10^-9 M)	Contracting effect of angiotensin II on the ciliary artery ([1]; valsartan added after 10^-7 M angiotensin II)	Decrease in the relative ophthalmic flow ([2]; angiotensin II 10^-6 M plus valsartan 10^-5 M)	Blood flow-decreasing action of angiotensin II ([2]; valsartan 10^-5 M on top of angiotensin II 10^-6 M)	Relative contraction in comparison to 100 mM KCl ([1]; 10^-7 M angiotensin II alone, no valsartan (pure angiotensin II effect))	Decrease in the relative ophthalmic flow ([2]; angiotensin II 10^-6 M alone)
CCCCC(=O)N(Cc1ccc(-c2ccccc2-c2nn[nH]n2)cc1)[C@H](C(=O)O)C(C)C [valsartan]	0.9 ± 0.45%	0.93 ± 0.4%	5.15 ± 1.6%	8.1 ± 1.5%	18.7 ± 2.2%	quantitatively abolished	6.82 ± 3.02%	strongly reduced	–	–
Angiotensin II: contracting agonist used to contract the ciliary artery and decrease ophthalmic flow (DRVYIHPF; Angiotensin-2; UniProt P01019 25-32, looked up)	–	–	–	–	–	–	–	–	27.9 ± 8.7%	24.5 ± 3.05%
